Tested on: HeLa cell
Assay: Cell penetration of pep(CPP)-FITC conjugates in HeLa cell line, flow cytometry (FACS)
Format: cell-based, Homo sapiens
Conditions: HeLa cells, 20 μM of each carrier peptide combined with FITC, 37° C. for an hour, control cells treated only FITC
Description: Homo sapiens cervix adenocarcinoma cell line as HeLa cell lines were purchased from ATCC (American Type Cell Culture). The cells were cultured in MEM supplemented with 10% fetal bovine serum (Invitrogen, USA), Earle's salts, non-essential amino acids, sodium pyruvate and 100 μg/ml penicillin and 10 units/ml streptomycin and cultured at 37° C., 5% CO2 incubator.
Flow cytometry and Confocal microscope analysis were performed to compare the between degree of cellular uptake of the cells were treated with SEQ ID NO: 1 to SEQ ID NO: 156, pep (CPP) and control.
The cell line was divided in a 6-well plate and cultured in a medium containing 10% fetal bovine serum (Invitrogen, USA), […] at 37° C., 5% CO2 incubator for 12 hours. After washing the cell line with PBS, starvation was induced in a Minimum Essential Medium for an hour. 20 μM of each carrier peptide was treated and cultured at 37° C. for an hour. After repeating the step of washing the cells with PBS for three times, Trypsin-EDTA was treated form 10 mins at 37° C. to separate the carrier peptide on the outside of the cell. cells were collected with refrigerated PBS and centrifugation was performed to repeat the step of washing the cells for three times. After then, the cells were suspended in 0.5 ml of PBS containing 4% Paraformaldehyde and fluorescence of the cells was analyzed using FACS Calibur (Becton Dickinson). The cellular uptake aspect of control and various peptides combined with FITC was compared and analyzed by MFI (Mean Fluorescence Intensity).
Analysis results shown in FIG. 1 to FIG. 23 are given in detail in Table 3 below.

Sequence	cellular uptake, MFI (Mean Fluorescence Intensity)
RFHACVLQLPFHQQVWKNPT (listed as Homo sapiens) [pep158]	87.75 ± 2.51
RAWNHSVREAGVPLGLPAPG (listed as Homo sapiens) [pep60]	15.79 ± 1.63
GLLGASVL (listed as Homo sapiens) [pep34]	14.41 ± 3.44
GLLGASVLG (listed as Homo sapiens) [pep30]	14.37 ± 1.73
YERARRPGL (listed as Homo sapiens) [pep11]	10.46 ± 1.99
AQCPYGVLLKTHCPLRAAVT (listed as Homo sapiens) [pep70]	21.82 ± 1.76
RTFRREKRAERLTSR (listed as Homo sapiens) [pep43]	29.88 ± 2.35
PQDRLTEVIASIIKP (listed as Homo sapiens) [pep47]	15.85 ± 1.03
AERLTSRVKALFSVL (listed as Homo sapiens) [pep10]	559.78 ± 3.41
RRPGLLGAS (listed as Homo sapiens) [pep28]	14.08 ± 3.11
SRPPRPWDTPCPPVYAETKH (listed as Homo sapiens) [pep123]	18.03 ± 2.83
SLPLPKRPRRGAAPEPERTP (listed as Homo sapiens) [pep119]	13.23 ± 0.64
ERARRPGL (listed as Homo sapiens) [pep32]	11.98 ± 2.92
CGPPLYQLGAATQARPPPHA (listed as Homo sapiens) [pep116]	20.5 ± 0.97
THCPLRAAVTPAAGVCAREK (listed as Homo sapiens) [pep128]	14.36 ± 1.21
TKKFISLGKHAKLSLQELTW (listed as Homo sapiens) [pep132]	26.39 ± 0.95
SVLNYERARR (listed as Homo sapiens) [pep16]	20.12 ± 1.84
LRRVGDDVLVHLIARCALFV (LRRVGDDVLVHLLARCALFV; listed as Homo sapiens) [pep57]	568.02 ± 3.01
LLGASVLGL (listed as Homo sapiens) [pep12]	22 ± 2.6
RARRPGLL (listed as Homo sapiens) [pep35]	15.54 ± 1.38
PAAGVCAREKPQGSVAAPEE (listed as Homo sapiens) [pep71]	16.61 ± 0.88
YERARRPGLL (listed as Homo sapiens) [pep20]	20.73 ± 2.45
RGDPAAFRALVAQCLVCVPW (listed as Homo sapiens) [pep52]	16.67 ± 2.22

Sequence	cellular uptake, MFI (Mean Fluorescence Intensity)
FLYSSGDKEQLRPSFLLSSL (listed as Homo sapiens) [pep124]	23.74 ± 3.62
EDTDPRRLVQLLRQHSSPWQ (listed as Homo sapiens) [pep72]	17.57 ± 2.31
LLVTPHLTHAKTFLRLTVRG (LLVTPHLTHAKTFLRTLVRG; listed as Homo sapiens) [pep151]	23.52 ± 0.56
NKLFAGIRRDGLLLRLVDDF (listed as Homo sapiens) [pep150]	17.46 ± 0.24
FVLRVRAQDPPPELY (listed as Homo sapiens) [pep46]	24.67 ± 2.02
SVLNYERAR (listed as Homo sapiens) [pep24]	13.78 ± 1.07
ERARRPGLL (listed as Homo sapiens) [pep22]	13.56 ± 0.23
GAAPEPERTPVGQGSWAHPG (listed as Homo sapiens) [pep62]	14.55 ± 3.71
VLGLDDIHRA (listed as Homo sapiens) [pep13]	14.01 ± 1.32
LDDIHRAWRTFVLRV (listed as Homo sapiens) [pep45]	203.77 ± 3.26
PALPSDFKTILD (listed as Homo sapiens) [pep106]	12.45 ± 0.38
ARRPGLLGA (listed as Homo sapiens) [pep26]	14.81 ± 1.77
FSVLNYERAR (listed as Homo sapiens) [pep18]	18.7 ± 1.21
SLCYSILKAKNAGMSLGAKG (listed as Homo sapiens) [pep102]	45.84 ± 1.58
AHGHVRKAFKSHVSTLTDLQ (listed as Homo sapiens) [pep145]	11.97 ± 0.78
CPPVYAETKHFLYSSGDKEQ (listed as Homo sapiens) [pep66]	20.7 ± 2.57
TQLSRKLPGTTLTALEAAAN (listed as Homo sapiens) [pep105]	13.23 ± 2.21
NYERARRPGL (listed as Homo sapiens) [pep19]	13.04 ± 3.41
WSKLQSIGIRQHLKRVQLRE (listed as Homo sapiens) [pep79]	31.2 ± 1.52
RTFVLRVRAQDPPPE (listed as Homo sapiens) [pep8]	17.75 ± 1.96
GASVLGLDDI (listed as Homo sapiens) [pep14]	10.51 ± 3.71
ALFSVLNYER (listed as Homo sapiens) [pep15]	35.61 ± 1.29
LVAPSCAYWVCGPPLYQLGA (LVAPSCAYQVCGPPLYQLGA; listed as Homo sapiens) [pep58]	19.87 ± 0.94

From US11773381B2, “Cell penetrating peptide, conjugate comprising same, and composition comprising conjugate” (GemVax & KAEL CO., LTD., priority 2012, dated 2023)
